Molecules are shown by their SMILES. Read-outs that look alike come from different tables or passages of the source.

One assay has as its target T1, human 5-HT3AB receptors (Homo sapiens, UniProt O95264+P46098).
T1 construct: expressed in transfected cells; host or cells: Xenopus laevis oocytes (cRNA from pGEMHE)
T1 sequence (P46098 24-478): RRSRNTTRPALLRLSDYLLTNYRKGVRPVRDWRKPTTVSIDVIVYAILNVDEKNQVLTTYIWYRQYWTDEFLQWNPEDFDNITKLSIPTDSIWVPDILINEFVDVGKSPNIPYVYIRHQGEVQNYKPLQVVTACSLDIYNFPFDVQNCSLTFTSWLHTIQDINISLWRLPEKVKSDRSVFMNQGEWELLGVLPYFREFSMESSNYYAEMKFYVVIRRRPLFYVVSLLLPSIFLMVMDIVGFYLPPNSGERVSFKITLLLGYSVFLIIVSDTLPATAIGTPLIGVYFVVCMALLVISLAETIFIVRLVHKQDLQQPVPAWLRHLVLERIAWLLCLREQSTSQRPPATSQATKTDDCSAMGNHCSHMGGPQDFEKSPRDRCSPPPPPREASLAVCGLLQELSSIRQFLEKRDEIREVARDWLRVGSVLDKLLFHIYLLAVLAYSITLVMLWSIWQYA
T1 sequence (O95264 22-441): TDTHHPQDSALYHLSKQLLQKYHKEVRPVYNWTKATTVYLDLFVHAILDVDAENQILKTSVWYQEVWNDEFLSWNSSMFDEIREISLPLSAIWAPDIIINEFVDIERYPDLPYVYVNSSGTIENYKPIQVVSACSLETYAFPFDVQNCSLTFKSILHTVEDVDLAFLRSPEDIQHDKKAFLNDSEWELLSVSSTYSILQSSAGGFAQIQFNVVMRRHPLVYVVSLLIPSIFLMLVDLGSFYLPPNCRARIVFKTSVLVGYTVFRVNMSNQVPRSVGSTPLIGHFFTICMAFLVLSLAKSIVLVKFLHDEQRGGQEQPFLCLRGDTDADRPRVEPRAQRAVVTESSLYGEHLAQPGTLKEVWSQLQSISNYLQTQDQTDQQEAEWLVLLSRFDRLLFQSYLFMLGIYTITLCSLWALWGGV
The assay is described as follows: Two-electrode voltage clamp of 5-HT-induced currents in Xenopus oocytes. It counts as cell-based. The protocol:
(§1) Stage V and VI oocytes were injected with 50 nl of ∼300 ng μl^−1 cRNA, and currents were recorded 1–4 days post-injection. A ratio of 1:3 (A:B) was used for the expression of heteromeric 5-HT3 receptors.
(§2) Xenopus laevis oocyte positive females were purchased from NASCO (Fort Atkinson, Wisconsin, USA) and maintained according to standard methods.
(§3) Currents were filtered at a frequency of 1 kHz. Micro-electrodes were fabricated from borosilicate glass (GC120TF-10, Harvard Apparatus, Edenbridge, Kent, UK) using a two stage horizontal pull (P-87, Sutter Instrument Company, California, USA) and filled with 3 M KCl. […] Oocytes were perfused with saline at a rate of 15 ml min^−1. Drug application was via a simple gravity fed system calibrated to run at the same rate. Extracellular saline contained (mM), 96 NaCl, 2 KCl, 1 MgCl2 and 5 mM HEPES; adjusted to pH 7.4 with NaOH.
(§4) Analysis and curve fitting was performed using Prism V3.02 (GraphPad Software, San Diego, California, USA, www.graphpad.com). Concentration-response data for each oocyte was normalised to the maximum current for that oocyte. For inhibition curves, antagonists were routinely co-applied in the presence of agonist. For PXN, oocytes were also pre-treated with the compound for 20 s. A 2 min wash was used between drug applications. The mean and S.E.M. for a series of oocytes was plotted against agonist or antagonist concentration and iteratively fitted (GraphPad Prism v3.02) to the following Hill equation:(1) IA=Imin+Imax−Imin/1+10^nH(logA50−logA) where A is the concentration of ligand present; IA is the current in the presence of ligand concentration A; Imin is the current when A = 0; Imax is the current when A = ∞ , A50 is the concentration of A which evokes a current equal to (Imax + Imin)/2; and nH is the Hill coefficient. Results are presented as mean ± S.E.M.. Statistical analysis was performed using ANOVA in conjunction with a Dunnett’s post-hoc test.

The target of the next assay is T2, human 5-HT3A receptors (Homo sapiens, UniProt P46098).
T2 construct: expressed in transfected cells; host or cells: Xenopus laevis oocytes (cRNA from pGEMHE)
T2 sequence (P46098 24-478): T1 sequence (P46098 24-478)
The assay is described as follows: Two-electrode voltage clamp of 5-HT-induced currents in Xenopus oocytes, incl. co-application. Type of assay: cell-based. The protocol:
as §1, §2, §3, §4
97) • Scenario 1: Where compounds share a binding site it was assumed that the extent of binding would be determined by a competitive interaction between the compounds such that the proportion of binding sites occupied (Pocc) in the presence of two competing compounds is given by the following expression: (2) Pocc=AKA+BKB/1+AKA+BKB where A and B are the concentrations of two ligands and KA and KB are their affinity constants respectively.
In each individual experiment, for each combination of inhibitors, data values were obtained for IA, IB and IAB. From IA and IB predicted values of IAB1 and IAB2 were also derived. A two-way ANOVA was performed on values of IAB, IAB1 and IAB2 in which the distinction between IAB, IAB1 and IAB2 was treated as a fixed factor and the variation in levels of inhibition between experiments was treated as a random factor. Where the ANOVA indicated a significant difference (P < 0.05) between IAB, IAB1 and IAB2 a post-hoc analysis was carried out using the Waller–Duncan method to identify homogenous subsets with a significance level of 0.05 and a Type I /Type II error ratio if 100.
Our models were based on the following assumptions: 1. that the channel blocking compounds only effect the response that is seen when the channel is open. […] In the case of condition 5 it is possible that the binding of one compound may prevent access of another to its own site. However, in practice this will not influence the analysis since the functional consequence of the binding of both compounds compared to one will be the same, namely complete channel blockade.
A general note: Two-electrode voltage clamp holds a large cell at a set potential and records current.

Another assay deals with glycine α1β receptors. Details: method as in Yang et al., 2007. Conditions: ref Yang et al., 2007; cited from earlier work.
The next assay addresses glycine α1 receptors. Also on record: method as in Yang et al., 2007. Conditions: ref Yang et al., 2007; cited from earlier work.
Setting [1] is: abstract, 5-HT-induced responses, Xenopus oocytes, read-out: IC50.
The mark [2] stands for this setting: read-out: inhibition at the highest concentration used.

With `C[C@@H]1C(=O)O[C@H]2C[C@@]34[C@H]5C[C@@H](C(C)(C)C)[C@]36[C@@H](OC(=O)[C@@H]6O)O[C@@]4(C(=O)O5)[C@]21O` [GA, ginkgolide A], the IC50 at human 5-HT3AB receptors (setting [1]) was above 1000 µM; on human 5-HT3AB receptors (inhibition of 5-HT EC50 response (28 μM 5-HT), oocytes, read-out: IC50), above 1000 µM; at human 5-HT3A receptors (setting [1]), above 1000 µM; on human 5-HT3A receptors (inhibition of 5-HT EC50 response (1.7 μM 5-HT), oocytes, read-out: IC50) it was above 1000 µM. The inhibition at 1000 µM on human 5-HT3AB receptors (setting [2]) and at human 5-HT3A receptors (setting [2]) was at most 50% in each case. Also, the “inhibition (in words)” value at human 5-HT3A receptors (1 mM, seen in the 5-HT3A receptor only) is given as “minimal inhibition”.
As to `CC(C)(O)[C@@H]1[C@H]2OC(=O)[C@@H]1[C@]1(O)C[C@H]3O[C@]34C(=O)O[C@H]2[C@]14C` [PTN, picrotin], the IC50 on glycine α1β receptors was around 30 µM; at human 5-HT3AB receptors (IC50, inhibition of 5-HT EC50 response (28 μM 5-HT), oocytes) it was 2900 µM; on human 5-HT3AB receptors (pIC50, inhibition of 5-HT EC50 response (28 μM 5-HT), oocytes) it was 2950 µM; at human 5-HT3A receptors, 470 µM; on glycine α1 receptors it was around 5 µM. Besides, the Hill slope on human 5-HT3AB receptors (concentration-inhibition curve, 28 μM 5-HT) was 0.99 ± 0.07; at human 5-HT3A receptors (concentration-inhibition curve, 1.7 μM 5-HT) it was 1.33 ± 0.15. For the same compound, the “ratio of current amplitudes at +40 mV relative to −40 mV (voltage-dependence)” value on human 5-HT3A receptors (compared with absence of antagonist, Fig. 2E) is listed as “unaltered”.

As usually defined, the IC50 is the concentration that inhibits the measured activity by half. The term Hill slope denotes a measure of the steepness of the concentration-response curve.

The values above are taken from PMC3070799 (Neuropharmacology, 2011).
